Consider two compounds from article PMC7179297, “Preclinical Antimalarial Combination Study of M5717, a Plasmodium falciparum Elongation Factor 2 Inhibitor, and Pyronaridine, a Hemozoin Formation Inhibitor” (Antimicrobial Agents and Chemotherapy, 2020).

For the assay, the system named is P. falciparum NF54 strain. In words: [3H]hypoxanthine incorporation assay, individual drugs. It is filed as cell-based. As to conditions: Plasmodium falciparum, 72 h. The procedure:
IC50 and drug interaction studies were performed as previously described ([27], [28]). […] Cultures were harvested onto glass fiber filters, washed, and the radioactivity was counted using a MicroBetaplate liquid scintillation counter and recorded as counts per minute (cpm) per well. Results are expressed as a percentage of the untreated controls (see the supplemental material for more details). page 2: 25 In vitro isobolograms 26 Compounds were tested against intraerythrocytic forms of P. falciparum derived from asynchronous stock cultures 27 of lab strain NF54 (Schiphol airport strain of unknown origin), as previously described.i,ii The culture medium was […] 29 mM HEPES, 25 mM NaHCO3 (pH 7.3), 0.36 mM hypoxanthine and 100 μg/mL neomycin. Human type A+ 30 erythrocytes served as host cells. […] 31 in humidified modular chambers. Testing of the individual drugs was carried out in 96-well microtiter plates. The 32 compounds were dissolved in DMSO (10 mg/mL), prediluted in hypoxanthine-free culture medium and titrated in […] After addition of an equal volume of parasite culture with a parasitemia of […] Parasite growth was measured by the incorporation of radiolabelled [3H]hypoxanthine (0.25 µCi in […] 37 assay duration) prior to the termination of the test. Cultures were harvested onto glass-fiber filters and washed with 38 distilled water. The radioactivity was counted using a MicroBetaplate liquid scintillation counter (Wallac, Zürich, 39 Switzerland) and the results recorded as counts per minute (cpm) per well at each drug concentration and expressed 40 as percentage of the untreated controls. Fifty percent inhibitory concentrations (IC50) were determined by linear 41 interpolation.v 42 43 For data interpretation, the IC50s of the drugs in combination were expressed as fractions of the IC50s of the drugs 44 alone. These fractions were called “Fractional Inhibitory Concentrations” (FIC) for drug A and for drug B, 45 respectively. 46 FIC Drug A = IC50 A (B) IC50 A […] 49 50 Formulation 51 Pyronaridine (tetraphosphate salt) and […] (succinate salt) were solubilized in a vehicle consisting of 70% […] 54 55 2

Regarding `O=C1C(O)=C([C@H]2CC[C@H](c3ccc(Cl)cc3)CC2)C(=O)c2ccccc21` [atovaquone], the concentration giving a half-maximal response (EC50) worked out at 0.0004 µM.
Take `[H]/N=C(\N/C(=N/[H])Nc1ccc(Cl)cc1)NC(C)C` [proguanil]: the 50% effective concentration (EC50) is 5.5 µM.
